According to patent publication US20100092539A1, “Fluorinated GHRH Antagonists” (priority 2008, published 2010):

Tested on: PC-3 human hormone-independent prostate cancer
Assay: Effect of treatment with GH-RH antagonists on PC-3 human prostate cancer xenografts in nude mice
Type: in vivo
Settings: PC-3 xenografts s.c. in male nude mice, 2 ug/day s.c., single daily injections for 28
Description: Male nude mice were implanted s.c. with 3 mm3 pieces of PC-3 human hormone-independent prostate cancer tissue on both flanks. When tumors reached a volume of approximately 50 mm3, the mice were divided into 14 experimental groups with 8 to 10 animals in each group and received single daily injections for 28 as follows: 1. Control (vehicle solution); 2. P-12211 (2 μg/day s.c.); 3. P-12307 (2 μg/day s.c.); 4. P-12317 (2 μg/day s.c.); 5. P-12408 (2 μg/day s.c.); 6. P-12409 (2 μg/day s.c.); 7. P-12457 (2 μg/day s.c.); 8. P-12473 (2 μg/day s.c.); 9. P-12479 (2 μg/day s.c.); 10. P-12600 (2 μg/day s.c.); 11. P-12601 (2 μg/day s.c.); 12. P-12602 (2 μg/day s.c.); 13. P-12603 (2 μg/day s.c.); and 14. P-12610 (2 μg/day s.c.).
Effect of Treatment with GH-RH Antagonists on PC-3 Human Prostate Cancer Xenografts in Nude Mice

Substance: [PhAc^0-Tyr^1, D-Arg^2, Cpa^6, Ala^8, Har^9, Fpa5^10, His^11, Orn^12, Abu^15, His^20, Orn^21, Nle^27, D-Arg^28, Har^29, Ada^30]hGH-RH(1-30)NH2 [Peptide P-12610]
- Tumor Growth after 4 weeks (%) (control 2137.62): 474.98%
- Tumor growth inhibition after 4 weeks (%) (versus control): 77.78%
